In patent US8604046B2, “Substituted piperidine spiro pyrrolidinone and piperidinone, preparation and therapeutic use thereof” (Sanofi, priority 2008, dated 2013):

How the values were obtained:
rhesus H3 receptor [1] = molecular target: T1, rhesus H3 receptor (Macaca mulatta, UniProt Q865E1); test: GTPγS radioligand binding assay, inhibition of rhesus H3 constitutive functional activity (inverse agonism); format: biochemical, rhesus monkey (Macacca Mulatta); set-up: concentration or dose not given beside the values; settings: rhesus H3 cell membranes, relative to basal levels
Experimental: (§1) Rhesus H3 membranes were prepared from the Flp-In T-REx 293 Cell Line (Invitrogen) stably transfected with pcDNA5/FRT/TO (Invitrogen) containing the rhesus monkey (Macacca Mulatta) 445 amino acid H3 receptor. (Genbank #AY231164). Stably transfected cultures were amplified in tissue culture flasks by standard tissue culture methods and induced to express rhesus H3 by exposure to 500 ng/ml tetracycline (Cellgro) for 24 hours. After induction, cells were dissociated from flasks utilizing Cell Stripper (Cellgro). Cells were centrifuged (1K×g, 5 min) and pellet frozen in an ethanol-dry ice bath to disrupt cell membranes. Frozen cell pellet was re-suspended in 5 mM HEPES (pH 7.4, Invitrogen) at 10 ml/1000 cm2 of harvested cells. The cell suspension was drawn through an 18 gauge needle (2-3×) followed by a 23 gauge needle (2-3×) to further disrupt cell membranes. The cell suspension was centrifuged (40K×g, 30 min). Cell membrane pellet was re-suspended in 5 mM HEPES (pH 7.4, Invitrogen) at a final protein concentration of 10 mg/ml. Rhesus H3 membranes were stored under liquid nitrogen prior to use in [3H]-Methylhistamine and GTP S radioligand binding assays.

rhesus H3 receptor [2] = molecular target: T1, rhesus H3 receptor; test: Rhesus H3 [3H]-methylhistamine radioligand binding assay; set-up: species or system rhesus monkey (Macacca Mulatta); settings: [3H]-Methylhistamine 2 nM, rhesus H3 membranes, WGA SPA beads, Cheng-Prusoff
Experimental: as §1
Rhesus H3 radioligand binding assay was performed using rhesus H3 receptor membranes (prepared as described above), [3H]-Methylhistamine (Perkin Elmer) and WGA SPA beads (wheat germ agglutinin scintillation proximity assay) beads (Amersham). The assay was performed in 96-well Opti-Plates (Packard). Each reaction contained 50 μl rhesus H3 membranes (20-30 μg total protein), 50 μl WGA SPA beads (0.1 μg) and 50 μl of 83 Ci/mmol [^3H]-Methylhistamine (final concentration 2 nM) and 50 μl of tested compound. The compounds of this invention and/or vehicle were diluted with binding buffer from 10 mM DMSO stocks. Assay plates were sealed with TopSeal (Perkin Elmer) and mixed on shaker (25° C., 1 hour). Assay plates were read on TopCount scintillation counter (Packard). Results were analyzed by Hill transformation and Ki values were determined by Cheng-Prusoff equation.

T1 sequence (Q865E1 1-445): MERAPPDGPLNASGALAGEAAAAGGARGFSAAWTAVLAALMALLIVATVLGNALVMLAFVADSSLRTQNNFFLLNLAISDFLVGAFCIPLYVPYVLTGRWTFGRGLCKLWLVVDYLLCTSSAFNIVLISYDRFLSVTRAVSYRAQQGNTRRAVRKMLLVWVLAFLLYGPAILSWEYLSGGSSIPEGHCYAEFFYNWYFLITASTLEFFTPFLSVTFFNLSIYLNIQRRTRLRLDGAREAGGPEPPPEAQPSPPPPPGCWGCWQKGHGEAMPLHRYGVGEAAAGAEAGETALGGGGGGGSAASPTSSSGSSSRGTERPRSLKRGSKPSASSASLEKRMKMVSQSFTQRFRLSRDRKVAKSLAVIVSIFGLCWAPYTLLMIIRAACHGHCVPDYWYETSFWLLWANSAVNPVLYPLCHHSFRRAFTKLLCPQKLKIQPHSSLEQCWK

Compound | Inverse Agonism: % inhibition of Basal GTPγS binding in Rhesus H3 (rhesus H3 receptor [1]) | Ki (rhesus H3 receptor [2])
Cc1cc(N2CCC(N3CCCC3C)C2)ccc1N1CCC2(CCN(CC3CCCC3)CC2)C1=O (stereo not drawn) [Example 14, 8-Cyclopentylmethyl-2-[2-methyl-4-(2-methyl-[1,3′]bipyrrolidinyl-1′-l)-phenyl]-2,8-diaza-spiro[4.5]decan-1-one] | −31% | 5600 pM
C[C@H]1CCCN1[C@H]1CCN(c2ccc(N3CCCC4(CCN(C(=O)c5ccccc5)CC4)C3=O)cc2)C1 [Example 28, 9-Benzoyl-2-[4-((2S,3′S)-2-methyl-[1,3′]bipyrrolidinyl-1′-yl)-phenyl]-2,9-diaza-spiro[5.5]undecan-1-one] | −15% | 500 pM
Cc1cc(N2CC[C@@H](N3CCC[C@H]3C)C2)ccc1N1CCC2(CCN(CC3CCCC3)CC2)C1=O [Example 11, 8-Cyclopentylmethyl-2-[2-methyl-4-((2R,3′R)-2-methyl-[1,3′]bipyrrolidinyl-1′-l)-phenyl]-2,8-diaza-spiro[4.5]decan-1-one] | −29% | 22000 pM
Cc1cc(N2CC[C@@H](N3CCC[C@@H]3C)C2)ccc1N1CCC2(CCNCC2)C1=O.Cl [Example 9, 2-[2-Methyl-4-((2S,3′R)-2-methyl-[1,3′]bipyrrolidinyl-1′-yl)-phenyl]-2,8-diaza-spiro[4.5]decan-1-one Hydrochloride] | −35% | 600 pM
C[C@H]1CCCN1C1CCN(c2ccc(N3CCC4(CCNCC4)C3=O)c(C(F)(F)F)c2)CC1.Cl [Example 45, 2-{4-[4-(2S-2-Methyl-pyrrolidin-1-yl)-piperidin-1-yl]-2-trifluoromethyl-phenyl}-2,8-diaza-spiro[4.5]decan-1-one Hydrochloride] | −19% | 150 pM
C[C@H]1CCCN1[C@H]1CCN(c2ccc(N3CCCC4(CCN(C(=O)c5ccc(F)cc5)CC4)C3=O)cc2)C1 [Example 29] | −17% | 400 pM
Cc1cc(N2CC[C@H](N3CCC[C@H]3C)C2)ccc1N1CCC2(CCN(C(=O)OC(C)(C)C)CC2)C1=O [Example 1, 2-[2-Methyl-4-((2R,3′S)-2-methyl-[1,3′]bipyrrolidinyl-1′-yl)-phenyl]-1-oxo-2,8-diaza-spiro[4.5]decane-8-carboxylic acid tert-butyl ester] | −24% | 132000 pM
Cc1cc(N2CC[C@@H](N3CCC[C@@H]3C)C2)ccc1N1CCC2(CCN(C(=O)c3ccc(OC(F)(F)F)cc3)CC2)C1=O [Example 17, 2-[2-Methyl-4-((2S,3′R)-2-methyl-[1,3′]bipyrrolidinyl-1′-yl)-phenyl]-8-(4-trifluoromethoxy-benzoyl)-2,8-diaza-spiro[4.5]decan-1-one] | −9% | 1400 pM
Cc1cc(N2CC[C@H](N3CCC[C@@H]3C)C2)ccc1N1CCCC2(CCN(C(=O)OC(C)(C)C)CC2)C1=O [Example 20, 2-[2-Methyl-4-((2S,3′S)-2-methyl-[1,3′]bipyrrolidinyl-1′-yl)-phenyl]-1-oxo-2,9-diaza-spiro[5.5]undecane-9-carboxylic acid tert-butyl ester] | −18% | 6800 pM
Cc1cc(N2CC[C@H](N3CCC[C@@H]3C)C2)ccc1N1CCCC2(CCN(C(=O)c3ccoc3)CC2)C1=O [Example 27, 9-(Furan-3-carbonyl)-2-[2-methyl-4-((2S,3′S)-2-methyl-[1,3′]bipyrrolidinyl-1′-yl)-phenyl]-2,9-diaza-spiro[5.5]undecan-1-one] | −19% | 1600 pM
C[C@H]1CCCN1[C@H]1CCN(c2ccc(N3CCCC4(CCN(CC5CC5)CC4)C3=O)cc2)C1 [Example 34, 9-Cyclopropylmethyl-2-[4-((2S,3′S)-2-methyl-[1,3′]bipyrrolidinyl-1′-yl)-phenyl]-2,9-diaza-spiro[5.5]undecan-1-one] | −16% | 200 pM
Cc1cc(N2CC[C@H](N3CCC[C@@H]3C)C2)ccc1N1CCC2(CCN(C(=O)c3ccc(OC(F)(F)F)cc3)CC2)C1=O [Example 19, 2-[2-Methyl-4-((2S,3′S)-2-methyl-[1,3′]bipyrrolidinyl-1′-yl)-phenyl]-8-(4-trifluoromethoxy-benzoyl)-2,8-diaza-spiro[4.5]decan-1-one] | −19% | 1400 pM
Cc1cc(N2CC[C@H](N3CCC[C@@H]3C)C2)ccc1N1CCC2(CCN(C(=O)OC(C)(C)C)CC2)C1=O [Example 4, 2-[2-Methyl-4-((2S,3′S)-2-methyl-[1,3′]bipyrrolidinyl-1′-yl)-phenyl]-1-oxo-2,8-diaza-spiro[4.5]decane-8-carboxylic acid tert-butyl ester] | −31% | 43000 pM
C[C@H]1CCCCN1[C@H]1CCN(c2ccc(N3CCC4(CCNCC4)C3=O)c(F)c2)C1.Cl [Example 49, 2-{4-[3-((2S,3′S)-2-Methyl-piperidin-1-yl)-pyrrolidin-1-yl]-2-fluoro-phenyl}-2,8-diaza-spiro[4.5]decan-1-one Hydrochloride] | −22% | 500 pM
Cc1cc(N2CC[C@H](N3CCC[C@@H]3C)C2)ccc1N1CCCC2(CCN(C(C)C)CC2)C1=O [Example 32, 9-Isopropyl-2-[2-methyl-4-((2S,3′S)-2-methyl-[1,3′]bipyrrolidinyl-1′-yl)-phenyl]-2,9-diaza-spiro[5.5]undecan-1-one] | −14% | 400 pM
Cc1cc(N2CC[C@H](N3CCC[C@@H]3C)C2)ccc1N1CCCC2(CCN(CC3CCCCC3)CC2)C1=O [Example 33, 9-Cyclohexylmethyl-2-[2-methyl-4-((2S,3′S)-2-methyl-[1,3′]bipyrrolidinyl-1′-yl)-phenyl]-2,9-diaza-spiro[5.5]undecan-1-one] | −14% | 200 pM
C[C@H]1CCCN1[C@H]1CCN(c2ccc(N3CCCC4(CCN(Cc5ccco5)CC4)C3=O)c(F)c2)C1 [Example 37, 2-[2-Fluoro-4-((2S,3′S)-2-methyl-[1,3′]bipyrrolidinyl-1′-yl)-phenyl]-9-furan-2-ylmethyl-2,9-diaza-spiro[5.5]undecan-1-one] | −17% | 100 pM
C[C@H]1CCCN1C1CCN(c2ccc(N3CCC4(CCN(CC5CC5)CC4)C3=O)c(F)c2)CC1 [Example 56, 8-Cyclopropylmethyl-2-{2-fluoro-4-[4-(2S-2-methyl-pyrrolidin-1-yl)-piperidin-1-yl]-phenyl}-2,8-diaza-spiro[4.5]decan-1-one] | −23% | 40 pM
C[C@H]1CCCN1[C@H]1CCN(c2ccc(N3CCC4(CCN(CC5CCOCC5)CC4)C3=O)c(C(F)(F)F)c2)C1 [Example 68, 2-[4-((2S,3′S)-2-Methyl-[1,3′]bipyrrolidinyl-1′-yl)-2-trifluoromethyl-phenyl]-8-(tetrahydro-pyran-4-ylmethyl)-2,8-diaza-spiro[4.5]decan-1-one] | −19% | 4200 pM
C[C@H]1CCCCN1[C@H]1CCN(c2ccc(N3CCC4(CCNCC4)C3=O)cc2)C1.Cl [Example 47, 2-{4-[3-((2S,3′S)-2-Methyl-piperidin-1-yl)-pyrrolidin-1-yl]-phenyl}-2,8-diaza-spiro[4.5]decan-1-one Hydrochloride] | −17% | 400 pM
C[C@H]1CCCN1[C@H]1CCN(c2ccc(N3CCCC4(CCN(C5CCOCC5)CC4)C3=O)cc2)C1 [Example 35, 2-[4-((2S,3′S)-2-Methyl-[1,3′]bipyrrolidinyl-1′-yl)-phenyl]-9-(tetrahydro-pyran-4-yl)-2,9-diaza-spiro[5.5]undecan-1-one] | −18% | 40 pM
C[C@H]1CCCCN1[C@H]1CCN(c2ccc(N3CCC4(CCN(CC5CCCCC5)CC4)C3=O)c(C(F)(F)F)c2)C1 [Example 58, 8-Cyclohexyl methyl-2-{4-[3-((2S,3′S)-2-methyl-piperidin-1-yl)-pyrrolidin-1-yl]-2-trifluoromethyl-phenyl}-2,8-diaza-spiro[4.5]decan-1-one] | −19% | 150 pM
C[C@H]1CCCN1C1CCN(c2ccc(N3CCC4(CCN(C(=O)OC(C)(C)C)CC4)C3=O)c(F)c2)CC1 [Example 40, 2-{4-[4-(2S-2-Methyl-pyrrolidin-1-yl)-piperidin-1-yl]-2-fluoro-phenyl}-1-oxo-2,8-diaza-spiro[4.5]decane-8-carboxylic acid tert-butyl ester] | −21% | –
